Measured values reported in ChEMBL document CHEMBL4402577, “Discovery and Optimization of a Compound Series Active against Trypanosoma cruzi, the Causative Agent of Chagas Disease” (J Med Chem, 2020).
Values after ≈ are worked out from the molar mass of the structure shown.

Legend:
L6 = assay: Cytotoxicity against rat L6 cells incubated for 70 hrs by resazurin dye based assay; type: cell-based; conditions: L6, 70 h
Trypanosoma cruzi = assay: Antitrypanosomal activity against Trypanosoma cruzi Tulahuen strain C2C4 trypomastigotes infected in rat L6 cells incubated for 96 hrs by photometric method based assay; type: functional, organism-based; conditions: Tulahuen strain C2C4, L6, 96 h
[1] = Selectivity ratio, EC50 for cytotoxicity against rat L6 cells to EC50 for antitrypanosomal activity against Trypanosoma cruzi Tulahuen strain C2C4 trypomastigotes infected in rat L6 cells; type: toxicity, cell-based; conditions: read-out: Ratio EC50
[2] = Intrinsic clearance in CD1 mouse liver microsomes at 0.5 uM measured up to 30 mins in presence of NADPH by UPLC-MSMS analysis; type: ADME, Microsome; conditions: 0.5 h
[3] = Kinetic aqueous solubility of compound in DMSO by nephelometric analysis; type: physicochemical; conditions: read-out: Kinetic_solubility

SMILES | EC50 (L6) | EC50 (Trypanosoma cruzi) | selectivity ratio [1] | intrinsic clearance [2] | solubility kinetic [3]
O=c1[nH]c2ccc(-c3cncnc3)cc2c(=O)n1CCC1CCCCC1 | 126 µM | 14000 nM | 9 |  | 
CC(=O)Nc1ccc2[nH]c(=O)n(C3CCCC3)c(=O)c2c1 | 184 µM | 12000 nM | 15 |  | 
CC(=O)Nc1ccc2[nH]c(=O)n(CCCc3ccccc3)c(=O)c2c1 | 134 µM | 7500 nM | 18 |  | 
CC(C)(C)C(=O)Nc1ccc2[nH]c(=O)n(CCC3CCCCC3)c(=O)c2c1 | 13 µM | 7100 nM | 1.8 |  | 
CC(=O)Nc1ccc2[nH]c(=O)n(CCC(C)C)c(=O)c2c1 | 163 µM | 9700 nM | 17 |  | 
CC(=O)Nc1ccc2[nH]c(=O)n(CCC3=CCCCC3)c(=O)c2c1 | 107 µM | 2100 nM | 51 |  | 
COc1cc([C@@H]2c3cc4c(cc3[C@H](O)[C@H]3COC(=O)[C@H]23)OCO4)cc(OC)c1OC [PODOFILOX] | 0.014 µM |  |  |  | 
CC(=O)Nc1ccc2[nH]c(=O)n([C@H]3CC[C@H](OC(C)C)CC3)c(=O)c2c1 | 136 µM | 3100 nM | 44 | < 0.5 mL/min/g | 
CC(=O)Nc1cnc2[nH]c(=O)n(CCC3CCCCC3)c(=O)c2c1 | 130 µM | 2300 nM | 57 |  | 97 µM (≈ 32 µg/mL)
CC(=O)Nc1ccc2[nH]c(=O)n([C@H]3CCO[C@@H](C(C)(C)C)C3)c(=O)c2c1 (racemic) | 125 µM | 2100 nM | 60 | 16 mL/min/g | 
CC(=O)Nc1ccc2[nH]c(=O)n(CCCC(C)C)c(=O)c2c1 | 173 µM | 4000 nM | 43 |  | 
CC(=O)Nc1ccc2[nH]c(=O)n([C@H]3CC[C@H](C(C)(C)O)CC3)c(=O)c2c1 | 136 µM | 139000 nM | 0.98 |  | 130 µM (≈ 46.7 µg/mL)
Cc1noc(C)c1-c1ccc2[nH]c(=O)n(CCC3CCCCC3)c(=O)c2c1 | 88 µM | 120000 nM |  |  | 
CC(=O)Nc1ccc2[nH]c(=O)n([C@H]3CC[C@H](C(F)(F)F)CC3)c(=O)c2c1 | 9.5 µM | 350 nM | 27 | < 0.5 mL/min/g | 
CC(=O)Nc1ccc2[nH]c(=O)n(C(CC3CCCCC3)C(N)=O)c(=O)c2c1 (configuration not stated) | 222 µM | 170000 nM | 1.3 |  | 
CC(=O)Nc1ccc2[nH]c(=O)n(C(C)(C)C)c(=O)c2c1 | 37 µM | 61000 nM | 0.6 |  | 
CC(=O)Nc1ccc2[nH]c(=O)n([C@H]3CC[C@@H](NC(=O)OC(C)(C)C)CC3)c(=O)c2c1 | 118 µM | 2600 nM | 45 |  | 
CC(=O)Nc1ccc2[nH]c(=O)n(CC3CCCCC3)c(=O)c2c1 | 54 µM | 2300 nM | 23 |  | 
CC(=O)Nc1ccc2[nH]c(=O)n(CCc3ccccc3)c(=O)c2c1 | 139 µM | 1100 nM | 130 |  | 
CC(=O)Nc1ccc2[nH]c(=O)n(CCC3CCCCC3)c(=O)c2c1 | 52 µM | 730 nM | 110 |  | 
CC(=O)Nc1ccc2[nH]c(=O)n(CCCC3CCCCC3)c(=O)c2c1 | 87 µM | 480 nM | 180 |  | 
Nc1ccc2[nH]c(=O)n(CCC3CCCCC3)c(=O)c2c1 | 19 µM | 1900 nM | 10 |  | 
CC(=O)Nc1ccc2[nH]c(=O)n(C3CCN(C(=O)OC(C)(C)C)CC3)c(=O)c2c1 | 127 µM | 30000 nM | 4.2 |  | 
CC(=O)Nc1ccc2[nH]c(=O)n(Cc3ccccc3)c(=O)c2c1 | 148 µM | 17000 nM | 9 |  | 

SMILES | EC50 (L6) | EC50 (Trypanosoma cruzi) | selectivity ratio [1] | intrinsic clearance [2] | solubility kinetic [3]
CC(C)[C@H]1CC[C@H](n2c(=O)[nH]c3ccc(N)cc3c2=O)CC1 | 22 µM | 27 nM | 810 |  | 
CC(=O)Nc1ccc2[nH]c(=O)n(C3CCN(C(C)(C)C)CC3)c(=O)c2c1 | > 280 µM | 220000 nM | 1 |  | 
CC(=O)Nc1ccc2[nH]c(=O)n(C3CCC(C)CC3)c(=O)c2c1 (mixture of isomers) | 54 µM | 1400 nM | 39 |  | 
CC(=O)Nc1ccc2[nH]c(=O)n(C3CCN(C(=O)OC(C)(C)C)C3)c(=O)c2c1 (racemic) | 170 µM | 54000 nM | 3.1 |  | 
CC(=O)Nc1ccc2[nH]c(=O)n([C@H]3CC[C@H](C(C)(C)F)CC3)c(=O)c2c1 | 17 µM | 2600 nM | 6.5 |  | 
CCCCCCn1c(=O)[nH]c2ccc(NC(C)=O)cc2c1=O | 154 µM | 2900 nM | 53 |  | 
O=C(Cn1ccnc1[N+](=O)[O-])NCc1ccccc1 [BENZNIDAZOLE] |  | 1940 nM |  |  | 
CC(=O)Nc1ccc2[nH]c(=O)n(C3CCN(C(=O)c4ccccc4)CC3)c(=O)c2c1 | 135 µM | 140000 nM | 1 |  | 
CC(=O)Nc1ccc2[nH]c(=O)n([C@H]3CC[C@@H](C(C)C)CC3)c(=O)c2c1 | 41 µM | 200 nM | 210 | 26 mL/min/g | 
CC(=O)Nc1cnc2[nH]c(=O)n([C@H]3CC[C@H](C(C)C)CC3)c(=O)c2c1 | 32 µM | 61 nM | 520 | 1.4 mL/min/g | 
CC(=O)Nc1ccc2[nH]c(=O)n([C@H](C)C3CCCCC3)c(=O)c2c1 | 88 µM | 2200 nM | 40 |  | 
N#CCc1ccc2[nH]c(=O)n(CCC3CCCCC3)c(=O)c2c1 | 70 µM | 2100 nM | 33 |  | 
CC(C)(C)[C@H]1CC[C@H](n2c(=O)[nH]c3ncc(N)cc3c2=O)CC1 | 63 µM | 660 nM | 95 | 0.5 mL/min/g | 
CC(=O)Nc1ccc2[nH]c(=O)n([C@H]3CO[C@H](C(C)(C)C)OC3)c(=O)c2c1 | 27 µM | 580 nM | 47 | < 0.5 mL/min/g | 
CC(C)(C)[C@H]1CC[C@@H](n2c(=O)[nH]c3ncc(N)cc3c2=O)CC1 | 44 µM | 240 nM | 183 | 1.6 mL/min/g | 
CC(=O)Nc1ccc2[nH]c(=O)n([C@H]3CC[C@H](OC(C)(C)C)CC3)c(=O)c2c1 | 123 µM | 3500 nM | 35 | < 0.5 mL/min/g | 
CC(=O)Nc1ccc2[nH]c(=O)n(C3CCCCCC3)c(=O)c2c1 | 112 µM | 2100 nM | 53 |  | 
CC[C@H]1CC[C@H](n2c(=O)[nH]c3ccc(N)cc3c2=O)CC1 | 32 µM | 120 nM | 270 | 4.2 mL/min/g | 
O=c1[nH]c2ccc(-c3ccncc3)cc2c(=O)n1CCC1CCCCC1 | 14 µM | 1700 nM | 8 |  | 
O=c1[nH]c2ccc(-c3cccnc3)cc2c(=O)n1CCC1CCCCC1 | 14 µM | 1900 nM | 7.4 |  | 
CC(=O)Nc1ccc2[nH]c(=O)n(C3CCCCC3)c(=O)c2c1 | 70 µM | 4200 nM | 17 |  | 
CC(=O)Nc1ccc2[nH]c(=O)n(-c3ccc(C(C)(C)C)cc3)c(=O)c2c1 | 17 µM | 4300 nM | 4 |  | 
CC(=O)Nc1ccc2[nH]c(=O)n(C3CCC(C(C)(C)C)C3)c(=O)c2c1 (racemic) | 41 µM | 20 nM | 2100 | 31 mL/min/g | 
COCCn1c(=O)[nH]c2ccc(NC(C)=O)cc2c1=O | 0.1 µM | 35000 nM | 0.003 |  | 
